Experimental data published in PMC9090415, “Discovery of small molecule inhibitors of Plasmodium falciparum apicoplast DNA polymerase” (Journal of Enzyme Inhibition and Medicinal Chemistry, 2022).

Target: P. falciparum apicoplast DNA polymerase (Pf-apPOL) (Plasmodium falciparum, UniProt Q8ILY1)
Experiment: Fluorescence-based high-throughput DNA polymerase assay (molecular beacon), primary screen and dose-response;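 on % inhibition ApPOL 90': test concentration in µM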;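 on % inhibition apPOL 180': test concentration in µM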
Assay type: biochemical
Conditions: for DNA Pol: unit not given, 90 min, 10 µM
In short: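 Single-point screening used 10 µM compound with 20 nM polymerase, 20 nM hairpin substrate and 6 µM dNTPs for 90 min at 25 °C. Confirmatory titrations (2.5–80 µM) followed fluorescence at three times, and IC50 was derived from a fit including a cooperativity term n.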

Chain of P. falciparum apicoplast DNA polymerase (Pf-apPOL) (Q8ILY1 entry or part of it): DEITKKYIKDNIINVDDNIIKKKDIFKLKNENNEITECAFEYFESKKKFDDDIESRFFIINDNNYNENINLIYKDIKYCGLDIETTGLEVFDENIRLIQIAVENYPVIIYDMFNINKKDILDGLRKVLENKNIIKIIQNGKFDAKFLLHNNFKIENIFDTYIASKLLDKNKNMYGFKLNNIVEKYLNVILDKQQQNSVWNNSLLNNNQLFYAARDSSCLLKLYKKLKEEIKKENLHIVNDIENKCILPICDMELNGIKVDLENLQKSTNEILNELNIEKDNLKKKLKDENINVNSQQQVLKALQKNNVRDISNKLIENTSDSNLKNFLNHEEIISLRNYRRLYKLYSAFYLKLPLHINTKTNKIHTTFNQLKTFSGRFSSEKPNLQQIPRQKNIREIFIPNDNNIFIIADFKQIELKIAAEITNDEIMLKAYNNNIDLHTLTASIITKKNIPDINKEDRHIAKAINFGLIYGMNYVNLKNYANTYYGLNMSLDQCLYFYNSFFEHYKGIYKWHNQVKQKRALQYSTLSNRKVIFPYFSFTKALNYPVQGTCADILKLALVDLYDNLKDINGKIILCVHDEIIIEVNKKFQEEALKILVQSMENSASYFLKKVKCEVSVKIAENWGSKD

O=c1cc(CN2CCCCC2)c2cc3c(cc2o1)OCO3 [Molecule 56, O=c1cc(CN2CCCCC2)c2c(o1)cc1c(c2)OCO1]
DNA Pol ('DNA Pol' of the 186 hits list (primary screen result)): 34
% inhibition Apo pol 10' (DRC-1, concentration 2.5): -1.492%
% inhibition Apo pol 10' (DRC-1, concentration 5): 3.303%
% inhibition Apo pol 10' (DRC-1, concentration 10): 19.9772%
% inhibition Apo pol 10' (DRC-1, concentration 20): 32.3483%
% inhibition Apo pol 10' (DRC-1, concentration 40): 45.3079%
% inhibition Apo pol 10' (DRC-1, concentration 80): 89.8826%
% inhibition Apol 90' (DRC-1, 90', concentration 2.5): 2.551%
% inhibition Apol 90' (DRC-1, 90', concentration 5): 7.455%
% inhibition Apol 90' (DRC-1, 90', concentration 10): 24.7772%
% inhibition Apol 90' (DRC-1, 90', concentration 20): 41.1965%
% inhibition Apol 90' (DRC-1, 90', concentration 40): 58.3854%
% inhibition Apol 90' (DRC-1, 90', concentration 80): 90.5438%
% inhibition apPOL 180' (DRC-1, 180', concentration 2.5): 3.723%
% inhibition apPOL 180' (DRC-1, 180', concentration 5): 9.055%
% inhibition apPOL 180' (DRC-1, 180', concentration 10): 32.8614%
% inhibition apPOL 180' (DRC-1, 180', concentration 20): 57.3951%
% inhibition apPOL 180' (DRC-1, 180', concentration 40): 81.7381%
% inhibition apPOL 180' (DRC-1, 180', concentration 80): 95.8992%
% inhibition Apo pol 5' (DRC-2, 5', concentration 10 (unit not given)): 21%
% inhibition Apol 40' (DRC-2, 40', concentration 2.5 (unit not given)): 8%
% inhibition Apol 40' (DRC-2, 40', concentration 5 (unit not given)): 4%
% inhibition Apol 40' (DRC-2, 40', concentration 20 (unit not given)): 39%
% inhibition Apol 40' (DRC-2, 40', concentration 80 (unit not given)): 68%
% inhibition ApPOL 90' (DRC-2, 90', concentration 20 (unit not given)): 39%
% inhibition ApPOL 90' (DRC-2, 90', concentration 80 (unit not given)): 68%
% inhibition apPOL 180' (DRC-2, 180', concentration 10 (unit not given)): 21%
% inhibition Apo pol 5' (DRC-2, 5', concentration 2.5): 5.61%
% inhibition Apo pol 5' (DRC-2, 5', concentration 5): 6%
% inhibition Apo pol 5' (DRC-2, 5', concentration 10): 21%
% inhibition Apo pol 5' (DRC-2, 5', concentration 20): 35%
% inhibition Apo pol 5' (DRC-2, 5', concentration 40): 50%
% inhibition Apo pol 5' (DRC-2, 5', concentration 80): 60%
% inhibition Apol 40' (DRC-2, 40', concentration 2.5): 8%
% inhibition Apol 40' (DRC-2, 40', concentration 5): 4%
% inhibition Apol 40' (DRC-2, 40', concentration 10): 26%
% inhibition Apol 40' (DRC-2, 40', concentration 20): 39%
% inhibition Apol 40' (DRC-2, 40', concentration 40): 54%
% inhibition Apol 40' (DRC-2, 40', concentration 80): 68%
% inhibition ApPOL 90' (DRC-2, 90', concentration 2.5): 8%
% inhibition ApPOL 90' (DRC-2, 90', concentration 2.5 (unit not given)): 8%
% inhibition ApPOL 90' (DRC-2, 90', concentration 5): -0.711%
% inhibition ApPOL 90' (DRC-2, 90', concentration 10): 27%
% inhibition ApPOL 90' (DRC-2, 90', concentration 20): 39%
% inhibition ApPOL 90' (DRC-2, 90', concentration 40): 53%
% inhibition ApPOL 90' (DRC-2, 90', concentration 80): 68%
% inhibition apPOL 180' (DRC-2, 180', concentration 2.5): 4%
% inhibition apPOL 180' (DRC-2, 180', concentration 2.5 (unit not given)): 4%
% inhibition apPOL 180' (DRC-2, 180', concentration 5): -66%
% inhibition apPOL 180' (DRC-2, 180', concentration 10): 21%
% inhibition apPOL 180' (DRC-2, 180', concentration 20): 32%
% inhibition apPOL 180' (DRC-2, 180', concentration 40): 45%
% inhibition apPOL 180' (DRC-2, 180', concentration 80): 64%
DNA Pol (primary screen value of the library well): 34
